Assays:
Type in all cases: in vivo
corn (Zea mays) [1] = assay: Test B preemergence
Procedure, shortened: (§1)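 Pre: seeded pots sprayed, chemical in non-phytotoxic solvent/surfactant mix. Post: plants 2–18 cm, 1–4 leaf, same formulation. Greenhouse 13–15 d; visual % control vs untreated, 0–100 scale.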

[2] = tested on: lambsquarters (Chenopodium album); assay: Test B preemergence
Procedure, shortened: as §1

[3] = tested on: giant foxtail (Setaria faberii); assay: Test B preemergence
Procedure, shortened: as §1

rice (Oryza saliva) [4] = assay: Test B preemergence
Procedure, shortened: as §1

[5] = tested on: crabgrass (Digitaria sanguinalis); assay: Test B preemergence
Procedure, shortened: as §1

[6] = tested on: barnyardgrass (Echinochloa crus-galli); assay: Test B preemergence
Procedure, shortened: as §1

[7] = tested on: velvetleaf (Abutilon theophrasti); assay: Test B preemergence
Procedure, shortened: as §1

[8] = tested on: pigweed (Amaranthus retroflexus); assay: Test B preemergence
Procedure, shortened: as §1

[9] = tested on: Surinam grass (Brachiaria decumbens); assay: Test B preemergence
Procedure, shortened: as §1

[10] = tested on: morning glory (Ipomoea hederacea); assay: Test B preemergence
Procedure, shortened: as §1

[11] = tested on: cocklebur (Xanthium strumarium); assay: Test B preemergence
Procedure, shortened: as §1

Sunflower = assay: Test C preemergence; conditions: scale 0 to 100, 0 no effect, 100 complete control
rice (Oryza saliva) [12] = assay: Test C flooded paddy test; conditions: for Rice plant response rating: Flooded Paddy, scale 0 to 100, 0 no effect, 100 complete control; for Plant response rating, Rice: flooded paddy test, scale 0 to 100 (0 no effect, 100 complete control)
Procedure, shortened: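 Flooded paddy, 2-leaf stage at treatment. Readout: visual % control vs untreated, 0–100, at 12–14 d in greenhouse.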

Nightshade = assay: Test C preemergence; conditions: visual evaluation after 12 to 14 days
corn (Zea mays) [13] = assay: Test B postemergence; conditions: 13 to 15 days
Procedure, shortened: as §1

[14] = tested on: lambsquarters (Chenopodium album); assay: Test B postemergence; conditions: 13 to 15 days
Procedure, shortened: as §1

[15] = tested on: giant foxtail (Setaria faberii); assay: Test B postemergence; conditions: 13 to 15 days
Procedure, shortened: as §1

[16] = tested on: crabgrass (Digitaria sanguinalis); assay: Test B postemergence; conditions: 13 to 15 days
Procedure, shortened: as §1

[17] = tested on: barnyardgrass (Echinochloa crus-galli); assay: Test B postemergence; conditions: 13 to 15 days
Procedure, shortened: as §1

wild oat (Avena fatua) = assay: Test B postemergence; conditions: 13 to 15 days
Procedure, shortened: as §1

[18] = tested on: wheat (Triticum aestivum); assay: Test B postemergence; conditions: 13 to 15 days
Procedure, shortened: as §1

[19] = tested on: velvetleaf (Abutilon theophrasti); assay: Test B postemergence; conditions: 13 to 15 days
Procedure, shortened: as §1

[20] = tested on: pigweed (Amaranthus retroflexus); assay: Test B postemergence; conditions: 13 to 15 days
Procedure, shortened: as §1

[21] = tested on: blackgrass (Alopecurus myosuroides); assay: Test B postemergence; conditions: 13 to 15 days
Procedure, shortened: as §1

[22] = tested on: Surinam grass (Brachiaria decumbens); assay: Test B postemergence; conditions: 13 to 15 days
Procedure, shortened: as §1

[23] = tested on: morning glory (Ipomoea hederacea); assay: Test B postemergence; conditions: 13 to 15 days
Procedure, shortened: as §1

[24] = tested on: cocklebur (Xanthium strumarium); assay: Test B postemergence; conditions: 13 to 15 days
Procedure, shortened: as §1

[25] = Preemergence, Rate 500 g/ha, scale 0 to 100, 0 no effect, 100 complete control
[26] = preemergence, Rate 125 g/ha, scale of 0 to 100 where 0 is no effect and 100 is complete control, 13 to 15 days
[27] = Rate 125 g/ha, scale 0 (no effect) to 100 (complete control)
[28] = Rate 500 g/ha, scale 0 to 100, 0 is no effect, 100 is complete control

## CC1(c2ccn(C3OCN(c4cccc(C(F)(F)F)c4)C3=O)n2)CC1 (centres unmarked) [Compound 62]
Corn (Zea mays) [1]; [25]
  Plant response rating, Corn: 0
Corn (Zea mays) [1]; [26]
  Plant response rating, Corn: 0
[2]; [25]
  Plant response rating, Lambsquarters: 100
[2]; [26]
  Plant response rating, Lambsquarters: 100
[3]; [25]
  Plant response rating, Foxtail, Giant: 80
[3]; [26]
  Plant response rating, Foxtail, Giant: 0
Rice (Oryza saliva) [4]; [25]
  Plant response rating, Rice: 30
Rice (Oryza saliva) [4]; [26]
  Plant response rating, Rice: 0
[5]; [25]
  Plant response rating, Crabgrass: 90
[5]; [26]
  Plant response rating, Crabgrass: 0
[6]; [25]
  Plant response rating, Barnyardgrass: 90
[6]; [26]
  Plant response rating, Barnyardgrass: 0
[7]; [25]
  Plant response rating, Velvetleaf: 0
[7]; [26]
  Plant response rating, Velvetleaf: 0
[8]; [25]
  Plant response rating, Pigweed: 100
[8]; [26]
  Plant response rating, Pigweed: 100
[9]; [25]
  Plant response rating, Surinam grass: 0
[9]; [26]
  Plant response rating, Surinam grass: 0
[10]; [25]
  Plant response rating, Morningglory: 0
[10]; [26]
  Plant response rating, Morningglory: 0
[11]; [25]
  Plant response rating, Cocklebur: 0
[11]; [26]
  Plant response rating, Cocklebur: 0
Sunflower; Rate 125 g/ha
  Plant response rating, Sunflower: 0
Rice (Oryza saliva) [12]; Rate 250 g/ha
  Rice plant response rating: 50
Rice (Oryza saliva) [12]; Rate 500 g/ha
  Rice plant response rating: 50
Rice (Oryza saliva) [12]; Rate 62 g/ha
  Plant response rating, Rice: 0
Rice (Oryza saliva) [12]; Rate 125 g/ha
  Plant response rating, Rice: 0
Nightshade; Rate 250 g/ha
  Plant response rating (0 to 100), Nightshade: 0
Nightshade; Rate 500 g/ha
  Plant response rating (0 to 100), Nightshade: 0
Corn (Zea mays) [13]; [27]
  Plant response rating, Corn: 0
Corn (Zea mays) [13]; [28]
  Plant response rating, Corn: 0
[14]; [27]
  Plant response rating, Lambsquarters: 0
[14]; [28]
  Plant response rating, Lambsquarters: 60
[15]; [27]
  Plant response rating, Foxtail, Giant: 0
[15]; [28]
  Plant response rating, Foxtail, Giant: 0
[16]; [27]
  Plant response rating, Crabgrass: 0
[16]; [28]
  Plant response rating, Crabgrass: 0
[17]; [27]
  Plant response rating, Barnyardgrass: 0
[17]; [28]
  Plant response rating, Barnyardgrass: 0
Wild oat (Avena fatua); [27]
  Plant response rating, Wild Oat: 0
Wild oat (Avena fatua); [28]
  Plant response rating, Wild Oat: 0
[18]; [27]
  Plant response rating, Wheat: 0
[18]; [28]
  Plant response rating, Wheat: 0
[19]; [27]
  Plant response rating, Velvetleaf: 0
[19]; [28]
  Plant response rating, Velvetleaf: 0
[20]; [27]
  Plant response rating, Pigweed: 0
[20]; [28]
  Plant response rating, Pigweed: 40
[21]; [27]
  Plant response rating, Blackgrass: 0
[21]; [28]
  Plant response rating, Blackgrass: 0
[22]; [27]
  Plant response rating, Surinam grass: 0
[22]; [28]
  Plant response rating, Surinam grass: 0
[23]; [27]
  Plant response rating, Morningglory: 0
[23]; [28]
  Plant response rating, Morningglory: 0
[24]; [27]
  Plant response rating, Cocklebur: 0
[24]; [28]
  Plant response rating, Cocklebur: 0

## CC1(c2ccn(C3SCN(c4cccc(C(F)(F)F)c4)C3=O)n2)CC1 (centres unmarked) [Compound 64]
Corn (Zea mays) [1]; [25]
  Plant response rating, Corn: 20
Corn (Zea mays) [1]; [26]
  Plant response rating, Corn: 0
[2]; [25]
  Plant response rating, Lambsquarters: 100
[2]; [26]
  Plant response rating, Lambsquarters: 100
[3]; [25]
  Plant response rating, Foxtail, Giant: 90
[3]; [26]
  Plant response rating, Foxtail, Giant: 0
Rice (Oryza saliva) [4]; [25]
  Plant response rating, Rice: 0
Rice (Oryza saliva) [4]; [26]
  Plant response rating, Rice: 0
[5]; [25]
  Plant response rating, Crabgrass: 100
[5]; [26]
  Plant response rating, Crabgrass: 40
[6]; [25]
  Plant response rating, Barnyardgrass: 90
[6]; [26]
  Plant response rating, Barnyardgrass: 50
[7]; [25]
  Plant response rating, Velvetleaf: 0
[7]; [26]
  Plant response rating, Velvetleaf: 0
[8]; [25]
  Plant response rating, Pigweed: 100
[8]; [26]
  Plant response rating, Pigweed: 100
[9]; [25]
  Plant response rating, Surinam grass: 60
[9]; [26]
  Plant response rating, Surinam grass: 30
[10]; [25]
  Plant response rating, Morningglory: 10
[10]; [26]
  Plant response rating, Morningglory: 0
[11]; [25]
  Plant response rating, Cocklebur: 10
[11]; [26]
  Plant response rating, Cocklebur: 0
Sunflower; Rate 125 g/ha
  Plant response rating, Sunflower: 20
Sunflower; Rate 250 g/ha
  Plant response rating, Sunflower: 50
Rice (Oryza saliva) [12]; Rate 250 g/ha
  Rice plant response rating: 80
Rice (Oryza saliva) [12]; Rate 500 g/ha
  Rice plant response rating: 90
Rice (Oryza saliva) [12]; Rate 62 g/ha
  Plant response rating, Rice: 0
Rice (Oryza saliva) [12]; Rate 125 g/ha
  Plant response rating, Rice: 20
Nightshade; Rate 500 g/ha
  Plant response rating (0 to 100), Nightshade: 90
Corn (Zea mays) [13]; [27]
  Plant response rating, Corn: 0
Corn (Zea mays) [13]; [28]
  Plant response rating, Corn: 20
[14]; [27]
  Plant response rating, Lambsquarters: 70
[14]; [28]
  Plant response rating, Lambsquarters: 80
[15]; [27]
  Plant response rating, Foxtail, Giant: 0
[15]; [28]
  Plant response rating, Foxtail, Giant: 30
[16]; [27]
  Plant response rating, Crabgrass: 0
[16]; [28]
  Plant response rating, Crabgrass: 50
[17]; [27]
  Plant response rating, Barnyardgrass: 0
[17]; [28]
  Plant response rating, Barnyardgrass: 50
Wild oat (Avena fatua); [27]
  Plant response rating, Wild Oat: 0
Wild oat (Avena fatua); [28]
  Plant response rating, Wild Oat: 0
[18]; [27]
  Plant response rating, Wheat: 0
[18]; [28]
  Plant response rating, Wheat: 0
[19]; [27]
  Plant response rating, Velvetleaf: 0
[19]; [28]
  Plant response rating, Velvetleaf: 30
[20]; [27]
  Plant response rating, Pigweed: 40
[20]; [28]
  Plant response rating, Pigweed: 70
[21]; [27]
  Plant response rating, Blackgrass: 0
[21]; [28]
  Plant response rating, Blackgrass: 0
[22]; [27]
  Plant response rating, Surinam grass: 0
[22]; [28]
  Plant response rating, Surinam grass: 40
[23]; [27]
  Plant response rating, Morningglory: 0
[23]; [28]
  Plant response rating, Morningglory: 60
[24]; [27]
  Plant response rating, Cocklebur: 70
[24]; [28]
  Plant response rating, Cocklebur: 70

From patent US7138361B2, “Herbicidal heterocycles” (E. I. du Pont de Nemours and Company, priority 2000, dated 2006)
